Peptide text beside a SMILES is read from it. * marks the point of attachment. Cbz = O=C(OCc1ccccc1)*; CH2Cl = ClC*; CH2F = FC*
What was measured:
calpain II = target: T1, calpain II (Homo sapiens, UniProt P17655); conditions: irreversible inhibitor; cited from earlier work
T1 sequence (P17655 1-700): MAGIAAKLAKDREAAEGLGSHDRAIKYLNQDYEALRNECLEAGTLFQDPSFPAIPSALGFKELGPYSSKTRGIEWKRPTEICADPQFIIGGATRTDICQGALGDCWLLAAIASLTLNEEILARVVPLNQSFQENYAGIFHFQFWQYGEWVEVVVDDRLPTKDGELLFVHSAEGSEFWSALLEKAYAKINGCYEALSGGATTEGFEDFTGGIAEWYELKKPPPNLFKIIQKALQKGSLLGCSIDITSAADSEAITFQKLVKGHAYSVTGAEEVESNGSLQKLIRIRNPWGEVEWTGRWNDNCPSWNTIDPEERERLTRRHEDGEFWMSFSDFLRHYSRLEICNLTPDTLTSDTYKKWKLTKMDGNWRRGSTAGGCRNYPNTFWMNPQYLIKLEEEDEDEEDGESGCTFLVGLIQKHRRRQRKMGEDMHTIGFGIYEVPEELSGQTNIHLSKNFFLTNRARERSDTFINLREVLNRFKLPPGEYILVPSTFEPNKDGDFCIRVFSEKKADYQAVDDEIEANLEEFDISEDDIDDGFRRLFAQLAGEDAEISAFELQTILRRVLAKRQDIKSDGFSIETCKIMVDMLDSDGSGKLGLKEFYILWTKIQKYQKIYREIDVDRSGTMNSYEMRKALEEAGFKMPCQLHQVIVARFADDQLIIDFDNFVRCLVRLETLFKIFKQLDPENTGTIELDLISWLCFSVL
T1 sequence (P04632 1-268 partner): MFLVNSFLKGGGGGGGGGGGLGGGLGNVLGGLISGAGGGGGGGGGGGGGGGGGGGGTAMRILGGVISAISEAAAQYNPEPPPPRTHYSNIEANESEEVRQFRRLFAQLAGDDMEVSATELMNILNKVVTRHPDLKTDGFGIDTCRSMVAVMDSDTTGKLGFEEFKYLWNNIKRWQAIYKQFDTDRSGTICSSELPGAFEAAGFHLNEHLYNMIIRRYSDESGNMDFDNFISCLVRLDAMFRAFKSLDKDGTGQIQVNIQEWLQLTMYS

cathepsin L = cathepsin L (Homo sapiens, UniProt P07711); conditions: cited from earlier work
cathepsin L, sequence (P07711 114-333, species assumed): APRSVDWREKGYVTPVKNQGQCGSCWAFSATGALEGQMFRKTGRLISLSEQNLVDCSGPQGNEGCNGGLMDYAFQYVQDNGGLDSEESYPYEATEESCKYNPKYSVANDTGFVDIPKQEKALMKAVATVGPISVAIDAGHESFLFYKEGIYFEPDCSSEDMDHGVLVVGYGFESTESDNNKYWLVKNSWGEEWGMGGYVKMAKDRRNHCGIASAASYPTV

fragmentin 2 = target: T2, fragmentin 2 (Rattus norvegicus, UniProt P18291); conditions: read-out: ID50 (the source's name); cited from earlier work
T2 sequence (P18291 21-248): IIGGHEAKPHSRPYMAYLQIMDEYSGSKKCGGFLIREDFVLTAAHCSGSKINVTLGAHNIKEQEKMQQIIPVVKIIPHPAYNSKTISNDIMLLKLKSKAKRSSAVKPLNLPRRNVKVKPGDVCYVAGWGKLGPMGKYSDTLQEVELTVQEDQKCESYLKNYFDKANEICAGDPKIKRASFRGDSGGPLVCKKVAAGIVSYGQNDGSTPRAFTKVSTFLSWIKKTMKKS

[1] = administered in rats in vivo; cited from earlier work
whole blood samples [2] = assay: Chip gel electrophoresis of DNA isolated from plasma of stored whole blood (DNA size distribution, blood cell stability/DNA release); assay type: cell-based; conditions: for ladder-like pattern (release/fragmentation of genomic DNA): Example 1, 20 μM in 10 ml K2E whole blood, RT, day 3 and day 7, vs DMSO control and K2E blood; for genomic DNA release/fragmentation: Example 2, day 7, RT
Method: A test system was designed, wherein cell-containing biological samples, here whole blood samples, were incubated at room temperature (RT) for up to 6 or 7 days. Therein, the sample stabilizing properties of the additives of the present invention were tested on day 0, day 3 and day 6/7 the samples. The samples were processed according to the following protocols, where applicable (for details, see also the specific examples in the results section):
To separate the blood plasma from the whole blood, the blood samples were centrifuged for 15 min at 5000 rpm, and the obtained plasma samples were again centrifuged for 10 min at 16,000×g at 4° C.
(§1) The circulating, extracellular nucleic acids were purified from the obtained plasma samples using the QIAamp® Circulating NA Kit (according to the handbook). In brief: • 10 ml sample input; • lysis: 1 ml Proteinase K and 8 ml Buffer ACL (QIAGEN) • binding: 18 ml Buffer ACB (QIAGEN) • wash-steps: unchanged and according to handbook • elution in 60 μl Buffer AVE (QIAGEN)
4.1. Measurement of the blood cell stability/DNA release by the determination of DNA size distribution using a chip gel electrophoresis (2100 Bioanalyzer; Agilent Technologies; Inc., USA) according to manufacturer's instruction (see handbook Agilent DNA 7500 and DNA 12000 Kit Guide), but 1.5 μl instead of 1 μl sample were transferred to the wells.
The eluted circulating cell-free DNA was separated by size using chip gel electrophoresis (for details on the method see above, I, 4.1). […] The DMSO control and the K2E blood (not treated according to the teachings of the present invention) show the same ladder-like pattern of bands. This pattern occurs in samples where apoptosis takes place. During apoptosis, endonucleases degrade genomic DNA at inter-nucleosomal linker regions and produce DNA fragments of circa 180 bp or multiples of 180 bp. Thus, apoptosis occurs in samples which show a clear ladder-like pattern. Furthermore, the strength (darkness) of the pattern is decisive. The darker the bands, the more genomic DNA was released from the cells and thus contaminates the extracellular nucleic acid population.

whole blood samples [3] = assay: 18S DNA duplex real time PCR assay: increase of ribosomal 18S DNA (ccfDNA) in plasma of stored whole blood; assay type: cell-based, human; conditions: for increase of ribosomal 18S DNA in plasma: Example 1, 20 μM in whole blood; for increase of ribosomal 18S DNA in plasma / increase of genomic DNA in plasma: within 7 days of storage at RT; for increase of genomic DNA in plasma: Example 2; for change of ccfDNA level in plasma (day X copies/day 0 copies): Example 8, RT up to 6 days, DHA 0.5 M, inositol 0.05 M, maltitol 0.01 M, mannitol
Method: A test system was designed, wherein cell-containing biological samples, here whole blood samples, were incubated at room temperature (RT) for up to 6 or 7 days. Therein, the sample stabilizing properties of the additives of the present invention were tested on day 0, day 3 and day 6/7 the samples.
as §1
4.2. DNA quantification with a real time PCR assay, sensitive for DNA degradation (target: 500 and 66 bp long ribosomal 18S DNA coding sequences).
(samples were diluted 1:10 before amplification)
Detection of ribosomal 18S DNA by quantitative real-time PCR, makes it possible to calculate the x-fold increase of DNA from day 0 to day 3 or 7 (calculation: division of day 3 (or 7) copies by day 0 copies).
The division of short amplicon copy number by long amplicon copy number (66 bp/500 bp) indicates whether the amount of detected short or long amplicons changes over time in a similar way. A decrease of this ratio implies a stronger release of longer rather than of shorter DNA molecules and can be interpreted as release of high molecular weight genomic DNA from blood cells.
On day 0, day 3 and day 6, replicates were processed as follows. […] The cleared plasma fraction was collected and the extracellular nucleic acids were isolated using the QIAamp Circulating nucleic acid kit (1 ml input material, 60 μl elution volume). […] Values that are close to 1 imply preserved levels of ccfDNA. The higher the value, the less stabilization is achieved.

Question: Which k2 (calpain II) does the source give for `CC(C)C[C@H](NC(=O)OCc1ccccc1)C(=O)N[C@@H](CC(C)C)C(=O)N[C@@H](Cc1ccc(O)cc1)C(=O)CF` [Calpain Inhibitor IV, Z-Leu-Leu-Tyr-CH2F] (Cbz-Leu-Leu-Tyr-CH2F) here?
Answer: The k2 was 28,900 M-1s-1). Also acts as an inhibitor of cathepsin L (k2 =.

Question: What about the k2 (cathepsin L) of the same compound?
Answer: Its k2 is 680,000 M-1s-1).

Question: For `CC(NC(=O)OCc1ccccc1)C(=O)NC(C)C(=O)NC(CC(=O)O)C(=O)CCl` (stereo not drawn) [Granzyme B Inhibitor I, Z-Ala-Ala-Asp-CH2Cl] (Cbz-Ala-Ala-Asp-CH2Cl; configuration not given here), which IC50 (fragmentin 2) is on record?
Answer: The IC50 was 300 nM.

Question: Which “more potent than Pifithrin-α in vivo” value [1] does the source give for `N=c1sc2c(n1CC(=O)c1ccc([N+](=O)[O-])cc1)CCCC2` [Pifithrin-α, ρ-Nitro] here?
Answer: The value was 100-fold more potent than Pifithrin-α when adminstered in rats in.

Question: With `CC(C)C(NC(=O)c1ccc2ccccc2n1)C(=O)NC(CC(=O)O)C(=O)COc1c(F)cccc1F` (stereo not drawn) [Q-VD-OPh, Quinoline-Val-Asp-CH2-OPH] as the compound, how does the “ladder-like pattern (release/fragmentation of genomic DNA)” value (whole blood samples [2]) read?
Answer: The value was “significantly reduced ladder-like patterns”.

Question: What about the “genomic DNA release/fragmentation” value (whole blood samples [2]; 1 μM with 21.4 mM glucose) of the same compound?
Answer: Its value is “significantly reduced”.

Question: What about the “genomic DNA release/fragmentation” value (whole blood samples [2]; 4 μM with 21.4 mM glucose) of the same compound?
Answer: The value was “effect is improved”.

Question: What about the “increase of ribosomal 18S DNA in plasma” value (whole blood samples [3]) of the same compound?
Answer: The value was “reduced increase of DNA”.

Question: And the “increase of genomic DNA in plasma” value (whole blood samples [3]; 1 μM with 21 mM glucose)?
Answer: Its value is “only a minor increase”.

Question: And the “increase of genomic DNA in plasma” value (whole blood samples [3]; 4 μM with 21 mM glucose)?
Answer: The value was at most 4 fold.

Question: For `O[C@H]1[C@H](O)[C@@H](O)[C@H](O)[C@@H](O)[C@H]1O` [inositol, Cyclohexane-1,2,3,4,5,6-geksol], which “change of ccfDNA level in plasma (day X copies/day 0 copies)” value (from here on “change … (day X copies/day 0 copies)”) (whole blood samples [3]) is on record?
Answer: Its value is “suitable alternatives”.

Question: With `OC[C@@H](O)[C@@H](O[C@H]1O[C@H](CO)[C@@H](O)[C@H](O)[C@H]1O)[C@H](O)[C@@H](O)CO` [maltitol, 4-O-α-D-Glucopyranosyl-D-glucitol] as the compound, how does the “change … (day X copies/day 0 copies)” value (whole blood samples [3]) read?
Answer: The value was “suitable alternatives”.

Question: For `OCC(O)C(O)C(O)C(O)CO` (stereo not drawn) [mannitol, Hexane-1,2,3,4,5,6-hexol], which “change … (day X copies/day 0 copies)” value (whole blood samples [3]) is on record?
Answer: The value was “stabilization effects over 3 days”.

Question: With Cbz-Val-Ala-Asp(OMe)-CH2F as the compound, how does the “ladder-like pattern (release/fragmentation of genomic DNA)” value (whole blood samples [2]) read?
Answer: The value was “reduced ladder-like pattern”.

Question: And the “increase of ribosomal 18S DNA in plasma” value (whole blood samples [3])?
Answer: Its value is “more prominent on day 7”.

From patent US12110533B2, “Stabilisation and isolation of extracellular nucleic acids” (Qiagen GmbH, priority 2011, dated 2024)
